According to PMC8539612, “Enzymatic Synthesis of Novel Vitexin Glucosides” (Molecules, 2021):
Values after ≈ are worked out from the molar mass of the structure shown.

Experiments:
[1] = Determination of aqueous solubility (vortex 1 h at 25 °C, centrifugation, filtration, HPLC); type: physicochemical; settings: for solubility at 1 h: thermodynamic from solid; for Aqueous solubility compared with vitexin: at different pH
Procedure: HPLC was performed with an Agilent® 1100 series HPLC system (Santa Clara, CA, USA) equipped with a gradient pump (Waters 600, Waters, Milford, MA, USA). The stationary phase was a C18 column (Sharpsil H-C18, 5 μm, 4.6 i.d. × 250 mm, Sharpsil, Bei-jing, China), and the mobile phase was 1% acetic acid in water (A) and methanol (B). The elution condition was a linear gradient from 0 min with 40% B to 20 min with 70% B; an isocratic elution from 20 min to 25 min with 70% B; a linear gradient from 25 min with 70% B to 28 min with 40% B; and an isocratic elution from 28 min to 35 min with 40% B. All elutions were performed at a flow rate of 1 mL/min. The sample volume was 10 µL. The detection condition was set at 254 nm.
The aqueous solubility of vitexin and its glucoside derivatives was examined as follows. Each compound was vortexed in double-deionized H2O, PB at pH 6, or pH 8, for 1 h at 25 °C. The mixture was centrifuged at 10,000× g for 30 min at 25 °C. The supernatant was filtered through a 0.2 µm nylon membrane, mixed with an equal volume of methanol, and analyzed by HPLC. The concentration of the tested compounds was determined on the basis of their peak areas, using calibration curves prepared by HPLC analyses of authentic samples.

[2] = design: method as in PMID 32292045; settings: poor bioavailability; cited from earlier work
[3] = PB (buffer), aqueous buffer, PB at pH 6, 25 °C
[4] = PB (buffer), aqueous buffer, PB at pH 8, 25 °C
[5] = double-deionized water, water, Deionized H2O at pH 7, 25 °C

solubility at 1 h [1, 3]	solubility at 1 h [1, 4]	Fold increase in aqueous solubility relative to vitexin in deionized H2O (normalized to 1) ([1]; PB at pH 6)	Fold increase in aqueous solubility relative to vitexin in deionized H2O (normalized to 1) ([1]; PB at pH 8)	Aqueous solubility compared with vitexin [1]	solubility at 1 h [1, 5]	Structure (SMILES)	Fold increase in aqueous solubility relative to vitexin in deionized H2O (normalized to 1) ([1]; Deionized H2O at pH 7)	Absorption in the gastrointestinal tract [2]
943 ± 212 µg/mL (≈ 1590 µM)	1800 ± 229 µg/mL (≈ 3030 µM)	25.3	48.4	higher than that of vitexin	941 ± 68.7 µg/mL (≈ 1580 µM)	O=c1cc(-c2ccc(OC3OC(CO)C(O)C(O)C3O)cc2)oc2c(C3OC(CO)C(O)C(O)C3O)c(O)cc(O)c12 (stereo not drawn) [Vitexin-4′-O-β-glucoside (1), vitexin-4′-O-β-glucoside]	25.3	–
444 ± 45 µg/mL (≈ 747 µM)	767 ± 21.6 µg/mL (≈ 1290 µM)	11.9	20.6	higher than that of vitexin	735 ± 51.7 µg/mL (≈ 1240 µM)	O=c1cc(-c2ccc(O)cc2)oc2c(C3OC(CO)C(O)C(O)C3O)c(O)cc(OC3OC(CO)C(O)C(O)C3O)c12 (stereo not drawn) [Vitexin-5-O-β-glucoside (2), vitexin-5-O-β-glucoside]	–	–

Structure (SMILES)	solubility at 1 h [1, 3]	solubility at 1 h [1, 4]	Fold increase in aqueous solubility relative to vitexin in deionized H2O (normalized to 1) ([1]; PB at pH 6)	Fold increase in aqueous solubility relative to vitexin in deionized H2O (normalized to 1) ([1]; PB at pH 8)	Aqueous solubility compared with vitexin [1]	solubility at 1 h [1, 5]	Fold increase in aqueous solubility relative to vitexin in deionized H2O (normalized to 1) ([1]; Deionized H2O at pH 7)	Absorption in the gastrointestinal tract [2]
O=c1cc(-c2ccc(O)cc2)oc2c([C@@H]3O[C@H](CO)[C@@H](O)[C@H](O)[C@H]3O)c(O)cc(O)c12 [Vitexin, apigenin-8-C-glucoside]	7.1 ± 1.2 µg/mL (≈ 16.4 µM)	157 ± 3.1 µg/mL (≈ 364 µM)	0.2	4.2	–	37.2 ± 2.8 µg/mL (≈ 86 µM)	1	approximately 5%
